Data as given in PubChem BioAssay (NCI).
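Cultured in 96-well plates, cells were exposed to test compound for 48 hours across five concentrations. GI50 = concentration required for 50% inhibition of growth. TGI is the concentration that stops growth completely.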

Legend:
Test in all cases: NCI tumour cell line growth inhibition, 48 h
EKVX NSCLC = test system: EKVX NSCLC
NCI-H23 lung = test system: NCI-H23 lung
MALME-3M melanoma = test system: MALME-3M melanoma
OVCAR-5 ovarian = test system: OVCAR-5 ovarian
KM12 colon = test system: KM12 colon
SN12C renal = test system: SN12C renal
SK-MEL-5 melanoma = test system: SK-MEL-5 melanoma
HS 578T breast = test system: HS 578T breast
MDA-MB-435 = test system: MDA-MB-435
MDA-MB-231 breast = test system: MDA-MB-231 breast
CCRF-CEM leukemia = test system: CCRF-CEM leukemia
SK-MEL-28 melanoma = test system: SK-MEL-28 melanoma
IGROV1 ovarian = test system: IGROV1 ovarian
HCT-116 colon = test system: HCT-116 colon
SNB-19 CNS = test system: SNB-19 CNS
SF-295 CNS = test system: SF-295 CNS
HCC-2998 colon = test system: HCC-2998 colon
SF-539 CNS = test system: SF-539 CNS
M14 melanoma = test system: M14 melanoma
MCF7 breast = test system: MCF7 breast
LOX IMVI melanoma = test system: LOX IMVI melanoma
HCT-15 colon = test system: HCT-15 colon
UO-31 renal = test system: UO-31 renal
UACC-62 melanoma = test system: UACC-62 melanoma
ACHN renal = test system: ACHN renal
OVCAR-4 ovarian = test system: OVCAR-4 ovarian
SNB-75 CNS = test system: SNB-75 CNS
HT29 colon = test system: HT29 colon
SR leukemia = test system: SR leukemia
BT-549 breast = test system: BT-549 breast
NCI-H460 lung = test system: NCI-H460 lung
SF-268 CNS = test system: SF-268 CNS
K-562 leukemia = test system: K-562 leukemia
HOP-92 NSCLC = test system: HOP-92 NSCLC
RPMI-8226 leukemia = test system: RPMI-8226 leukemia
NCI/ADR-RES ovarian = test system: NCI/ADR-RES ovarian
SW-620 colon = test system: SW-620 colon
CAKI-1 renal = test system: CAKI-1 renal
TK-10 renal = test system: TK-10 renal
MOLT-4 leukemia = test system: MOLT-4 leukemia
COLO 205 colon = test system: COLO 205 colon
A498 renal = test system: A498 renal
DU-145 prostate = test system: DU-145 prostate
HL-60(TB) leukemia = test system: HL-60(TB) leukemia
T-47D breast = test system: T-47D breast

Molecule `CCOC(=O)c1c(NC(=O)c2cccc(C(F)(F)F)c2)sc2c(CN3CCN(C)CC3)c(O)ccc12` has a GI50 (EKVX NSCLC) of 1690 nM, a TGI (EKVX NSCLC) of 3310 nM and a GI50 (NCI-H23 lung) of 1760 nM. The TGI (NCI-H23 lung) was 3280 nM, the GI50 (MALME-3M melanoma) was 1650 nM and the TGI (MALME-3M melanoma) was 3150 nM. The GI50 (OVCAR-5 ovarian) was 1500 nM, the TGI (OVCAR-5 ovarian) was 2850 nM and the GI50 (KM12 colon) was 1860 nM. For the same molecule, the TGI (KM12 colon) was 3400 nM, the GI50 (SN12C renal) was 1670 nM and the TGI (SN12C renal) was 3160 nM. For the same molecule, the GI50 (SK-MEL-5 melanoma) was 1790 nM, the TGI (SK-MEL-5 melanoma) was 3400 nM and the GI50 (HS 578T breast) was 1890 nM. For the same molecule, the TGI (HS 578T breast) was 4510 nM, the GI50 (MDA-MB-435) was 1690 nM and the TGI (MDA-MB-435) was 3100 nM. The GI50 (MDA-MB-231 breast) was 1650 nM, the TGI (MDA-MB-231 breast) was 3110 nM and the GI50 (CCRF-CEM leukemia) was 1510 nM. It also gave a TGI (CCRF-CEM leukemia) of 4220 nM, a GI50 (SK-MEL-28 melanoma) of 1720 nM and a TGI (SK-MEL-28 melanoma) of 3150 nM. It also gave a GI50 (IGROV1 ovarian) of 1700 nM, a TGI (IGROV1 ovarian) of 3270 nM and a GI50 (HCT-116 colon) of 1000 nM. The TGI (HCT-116 colon) was 2430 nM, the GI50 (SNB-19 CNS) was 1720 nM and the TGI (SNB-19 CNS) was 3310 nM. It also gave a GI50 (SF-295 CNS) of 1700 nM, a TGI (SF-295 CNS) of 3250 nM and a GI50 (HCC-2998 colon) of 1650 nM. It also gave a TGI (HCC-2998 colon) of 3370 nM, a GI50 (SF-539 CNS) of 1620 nM and a TGI (SF-539 CNS) of 3060 nM. It also gave a GI50 (M14 melanoma) of 1880 nM, a TGI (M14 melanoma) of 3530 nM and a GI50 (MCF7 breast) of 1510 nM. The TGI (MCF7 breast) was 3030 nM, the GI50 (LOX IMVI melanoma) was 1760 nM and the TGI (LOX IMVI melanoma) was 3310 nM. It also gave a GI50 (HCT-15 colon) of 1610 nM, a TGI (HCT-15 colon) of 3130 nM and a GI50 (UO-31 renal) of 1520 nM. The TGI (UO-31 renal) was 3000 nM, the GI50 (UACC-62 melanoma) was 1760 nM and the TGI (UACC-62 melanoma) was 3270 nM. It also gave a GI50 (ACHN renal) of 1820 nM and a TGI (ACHN renal) of 3310 nM.
Molecule `[Cl][Ru].c1ccc(-c2cc(-c3ccccn3)nc(-c3ccccn3)c2)cc1.c1ccc(-c2ccnc3c2ccc2c(-c4ccccc4)ccnc23)cc1` has a GI50 (OVCAR-4 ovarian) of 424 nM, a TGI (OVCAR-4 ovarian) of 2500 nM and a GI50 (EKVX NSCLC) of 352 nM. For the same molecule, the TGI (EKVX NSCLC) was 2360 nM, the GI50 (OVCAR-5 ovarian) was 396 nM and the TGI (OVCAR-5 ovarian) was 1710 nM. For the same molecule, the GI50 (SN12C renal) was 266 nM, the TGI (SN12C renal) was 915 nM and the GI50 (SK-MEL-5 melanoma) was 577 nM. The TGI (SK-MEL-5 melanoma) was 1840 nM, the GI50 (SNB-75 CNS) was 179 nM and the TGI (SNB-75 CNS) was 829 nM. The GI50 (HS 578T breast) was 275 nM, the TGI (HS 578T breast) was 919 nM and the GI50 (MDA-MB-435) was 322 nM. For the same molecule, the TGI (MDA-MB-435) was 1010 nM, the GI50 (HT29 colon) was 333 nM and the TGI (HT29 colon) was 1310 nM. The TGI (SR leukemia) was 1090 nM, the GI50 (CCRF-CEM leukemia) was 415 nM and the GI50 (BT-549 breast) was 224 nM. It also gave a TGI (BT-549 breast) of 869 nM, a GI50 (SK-MEL-28 melanoma) of 418 nM and a TGI (SK-MEL-28 melanoma) of 1580 nM. For the same molecule, the GI50 (NCI-H460 lung) was 351 nM, the TGI (NCI-H460 lung) was 1120 nM and the GI50 (HCC-2998 colon) was 356 nM. It also gave a TGI (HCC-2998 colon) of 1450 nM, a GI50 (SF-268 CNS) of 489 nM and a GI50 (K-562 leukemia) of 301 nM. The TGI (K-562 leukemia) was 4660 nM, the GI50 (HOP-92 NSCLC) was 139 nM and the TGI (HOP-92 NSCLC) was 543 nM. It also gave a GI50 (RPMI-8226 leukemia) of 232 nM, a TGI (RPMI-8226 leukemia) of 727 nM and a GI50 (HCT-15 colon) of 2080 nM. For the same molecule, the TGI (HCT-15 colon) was 4730 nM, the GI50 (NCI/ADR-RES ovarian) was 31100 nM and the TGI (NCI/ADR-RES ovarian) was > 100000 nM. It also gave a GI50 (SW-620 colon) of 451 nM, a TGI (SW-620 colon) of 1670 nM and a GI50 (UO-31 renal) of 2620 nM. For the same molecule, the TGI (UO-31 renal) was > 45800 nM, the GI50 (CAKI-1 renal) was 3150 nM and the TGI (CAKI-1 renal) was 26600 nM. The GI50 (TK-10 renal) was 1600 nM, the TGI (TK-10 renal) was 4150 nM and the GI50 (MOLT-4 leukemia) was 332 nM. The TGI (MOLT-4 leukemia) was 1620 nM, the GI50 (COLO 205 colon) was 182 nM and the TGI (COLO 205 colon) was 335 nM. It also gave a GI50 (A498 renal) of 1930 nM, a TGI (A498 renal) of 4560 nM and a GI50 (DU-145 prostate) of 529 nM. For the same molecule, the GI50 (UACC-62 melanoma) was 292 nM, the TGI (UACC-62 melanoma) was 1170 nM and the GI50 (ACHN renal) was 3230 nM. For the same molecule, the TGI (ACHN renal) was 25700 nM, the GI50 (HL-60(TB) leukemia) was 252 nM and the TGI (HL-60(TB) leukemia) was 696 nM. It also gave a GI50 (T-47D breast) of 270 nM and a TGI (T-47D breast) of 1070 nM.
